Consider 14 compounds from patent US8410144B2, “Substituted indolo-pyridinone compounds” (ArQule, Inc., priority 2009, dated 2013).

For one assay, the system named is KATO III. Kind of assay: MTS assay, KATO III cells. To be noted: Homo sapiens, 72 hours, read-out: KATO III, MTS cell kill % inhibition. In kind it is cell-based. The protocol:
(§1) Cells were maintained at 37° C., 5% CO2 in DMEM media supplemented with 1% fetal bovine serum, penicillin/streptomycin and fungizone (Invitrogen). Cells were seeded into 96-well tissue culture plates at 3000 per well and cultured at 37° C. for 18 hours. Test compounds were dissolved and diluted to 300× in DMSO then diluted 1:40 in DMEM. Cells were incubated with test compounds for 72 hours followed by incubation with tetrazolium compound (3-(4,5-dimethylthiazol-2-yl)-5-(3-carboxymethoxyphenyl)-2-(4-sulfophenyl)-2H-tetrazolium, inner salt; MTS) and the electron coupling reagent, phenazine methosulfate (PMS) for 4 hours. […] The ability of compounds to inhibit cell growth in this assay is correlated with the reduction of dehydrogenase enzyme activity found in metabolically active cells. The measurement of the absorbance of the formazan was assessed using an ENVISION™ (Perkin Elmer) microplate reader at 492 nm. The calculated IC50 value is the concentration of the test compound that causes a 50% decrease in the absorbance.
Background: Formazan colour is commonly taken as a measure of viable cells.

Another assay concerns NCI-H1299. Put plainly: MTS assay, NCI-H1299 cells. In kind it is cell-based. The following applies: Homo sapiens, 72 hours, read-out: NCI-H1299, MTS cell kill % inhibition. The protocol: as §1
The test system of a further assay is DLD-1. Put plainly: MTS assay, DLD-1 cells. Format: cell-based. The following applies: Homo sapiens, 72 hours, read-out: DLD-1, MTS cell kill % inhibition. The procedure:
as §1

The target of another assay is IGF-1R (Homo sapiens, UniProt P08069). Kind of assay: IGFR1 activity assay (ELISA). Format: biochemical. The following applies: read-out: IGF-1R, PCT INH (30 μM), ELISA. The procedure: The disclosed compounds were assayed for their ability to inhibit insulin-like growth factor receptor-1 (IGFR1). Nunc Maxisorb plates were coated with streptavidin by overnight incubation with 100 μL per well of 1 μg/ml Streptavidin in DPBS. Prior to the start of the experiment, the plates were washed with TBST (3×200 μL) and blocked for at least 1 hour by adding 150 μL of 5% BSA/TBST. The plates were washed with TBST (3×200 μL/well) and left to dry immediately before the capture step.
The disclosed test articles and controls (Staurosporine) were prepared using the following assay buffer at 3× desired final concentration (50 mM Tris-HCl, 0.02 mg/ml BSA, 10 mM MgCl2, 0.1 mM Na3VO4, 1 mM EGTA, 12.5 μM ATP, 0.01% NP-40, 1 mM DTT in 10% glycerol/water). 20 μL of the test compounds (or control), 20 μL IGF1R (0.33 ng/μL final concentration), and 20 μL of Pyk-2 (0.05 ng/μL final concentration) were rapidly added to the reaction plate. The plate was incubated at room temperature for one hour.
50 μL was transferred from the reaction plate to the streptavidin coated plate. The capture plate was incubated at room temperature for 30 minutes, then washed with TBST three times. 100 μL/well of Cell Signaling anti-phospho tyrosine was added to the capture plate at a dilution of 1:3000 in 2% BSA/TBST. The plate was incubated for one hour at room temperature then washed 6× with TBST. 100 μL/well of alkaline phosphatase tagged goat anti mouse antibody was added to the capture plate at a dilution of 1:4000 in 2% BSA/TBST. The plate was incubated for one hour at room temperature then washed with TBST six times.
The fluorescent readout is initiated by the addition of 100 μL/well of Attophos reagent (6 mg/10 mL). The reading is done on the Perkin Elmer Envision system.

The next assay concerns MDA-MB-231. Put plainly: MTS assay, MDA-MB-231 cells. In kind it is cell-based. The following applies: Homo sapiens, 72 hours, read-out: MDA-MB-231, MTS cell kill % inhibition. The protocol:
as §1

Sequence of IGF-1R (P08069 31-1367): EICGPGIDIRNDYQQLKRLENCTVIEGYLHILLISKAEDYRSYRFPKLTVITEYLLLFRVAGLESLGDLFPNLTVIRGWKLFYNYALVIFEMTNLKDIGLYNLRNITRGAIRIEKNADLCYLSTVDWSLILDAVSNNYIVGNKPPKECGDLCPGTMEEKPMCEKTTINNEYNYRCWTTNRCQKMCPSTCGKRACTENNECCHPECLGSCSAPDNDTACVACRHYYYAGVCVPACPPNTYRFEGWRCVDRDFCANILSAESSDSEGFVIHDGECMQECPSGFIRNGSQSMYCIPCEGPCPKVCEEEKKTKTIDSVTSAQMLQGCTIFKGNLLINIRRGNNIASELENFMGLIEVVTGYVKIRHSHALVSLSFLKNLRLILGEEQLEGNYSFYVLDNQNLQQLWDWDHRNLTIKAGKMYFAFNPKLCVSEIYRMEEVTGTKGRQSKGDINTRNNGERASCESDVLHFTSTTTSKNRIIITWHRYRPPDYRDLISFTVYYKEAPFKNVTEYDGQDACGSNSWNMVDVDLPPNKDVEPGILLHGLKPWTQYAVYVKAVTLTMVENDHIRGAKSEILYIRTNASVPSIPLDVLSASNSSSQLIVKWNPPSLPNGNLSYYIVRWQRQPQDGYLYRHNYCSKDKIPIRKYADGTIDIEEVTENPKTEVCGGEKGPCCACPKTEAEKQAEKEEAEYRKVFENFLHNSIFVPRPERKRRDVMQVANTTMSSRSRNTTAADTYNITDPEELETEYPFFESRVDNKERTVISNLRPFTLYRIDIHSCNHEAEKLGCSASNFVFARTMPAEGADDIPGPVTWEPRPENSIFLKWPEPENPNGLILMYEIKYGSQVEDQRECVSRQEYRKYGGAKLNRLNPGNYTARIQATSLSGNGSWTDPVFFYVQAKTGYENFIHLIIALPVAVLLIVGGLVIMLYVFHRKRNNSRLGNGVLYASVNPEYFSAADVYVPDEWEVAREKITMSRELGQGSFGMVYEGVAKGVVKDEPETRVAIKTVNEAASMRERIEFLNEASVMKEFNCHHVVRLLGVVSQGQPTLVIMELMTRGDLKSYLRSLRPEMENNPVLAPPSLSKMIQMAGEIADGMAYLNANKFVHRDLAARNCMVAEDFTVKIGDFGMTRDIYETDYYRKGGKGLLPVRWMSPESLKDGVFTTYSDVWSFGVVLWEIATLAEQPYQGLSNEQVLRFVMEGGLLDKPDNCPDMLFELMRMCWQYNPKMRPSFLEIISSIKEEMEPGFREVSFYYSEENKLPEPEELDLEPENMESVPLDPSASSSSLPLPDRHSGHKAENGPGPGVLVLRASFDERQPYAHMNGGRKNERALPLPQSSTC

Consider `O=C(NCCOc1ccccc1)c1ccc2[nH]c(-c3ccc[nH]c3=O)c(-c3ccccc3)c2c1` [Compound 31, 2-(2-oxo-1,2-dihydropyridin-3-yl)-N-(2-phenoxyethyl)-3-phenyl-1H-indole-5-carboxamide], for which the inhibition at 10 µM was 80 to 100% in the assay with KATO III, 80 to 100% in the assay with NCI-H1299, 50 to 79% with DLD-1 and below 50% in the assay on MDA-MB-231. Besides, the inhibition at 30 µM on IGF-1R lay in the range of 80 to 100%.
On to `COc1ccc(CNC(=O)c2ccc3[nH]c(-c4ccc[nH]c4=O)c(-c4ccccc4)c3c2)cc1OC` [Compound 32, N-(3,4-dimethoxybenzyl)-2-(2-oxo-1,2-dihydropyridin-3-yl)-3-phenyl-1H-indole-5-carboxamide], for which the inhibition at 10 µM with KATO III is 80 to 100%; in the assay with NCI-H1299, 80 to 100%; in the assay on DLD-1, 50 to 79%; with MDA-MB-231 it was below 50%. Moreover, at IGF-1R, the inhibition at 30 µM was in the range of 80 to 100%.
Consider `O=C(c1ccc2[nH]c(-c3ccc[nH]c3=O)c(-c3ccc(-c4ccccc4)cc3)c2c1)N1CCN(CCN2CCOCC2)CC1` [Compound 37, 3-(3-biphenyl-4-yl-5-{[4-(2-morpholin-4-ylethyl)piperazin-1-yl]carbonyl]-1H-indol-2-yl)pyridin-2(1H)-one], for which the inhibition at 10 µM in the assay with KATO III, in the assay with NCI-H1299, with DLD-1 and with MDA-MB-231 was 80 to 100% throughout. The inhibition at 30 µM on IGF-1R was in the range of 80 to 100%.
In the case of `O=C(NCCc1ccccn1)c1ccc2[nH]c(-c3ccc[nH]c3=O)c(-c3ccc(-c4ccccc4)cc3)c2c1` [Compound 39, 3-biphenyl-4-yl-2-(2-oxo-1,2-dihydropyridin-3-yl)-N-(2-pyridin-2-ylethyl)-1H-indole-5-carboxamide], the inhibition at 10 µM in the assay on KATO III, in the assay with NCI-H1299, with DLD-1 and in the assay on MDA-MB-231 was 80 to 100% throughout. For the same compound, on IGF-1R, the inhibition at 30 µM fell in the range of 50 to 79%.
For `O=C(NCc1ccccc1)c1ccc2[nH]c(-c3ccc[nH]c3=O)c(-c3ccc(-c4ccccc4)cc3)c2c1` [Compound 40, N-benzyl-3-biphenyl-4-yl-2-(2-oxo-1,2-dihydropyridin-3-yl)-1H-indole-5-carboxamide], the inhibition at 10 µM is below 50% with KATO III, 50 to 79% with NCI-H1299, below 50% with DLD-1 and below 50% in the assay on MDA-MB-231. Besides, the inhibition at 30 µM at IGF-1R is below 50%.
As for `O=C(c1ccc2[nH]c(-c3ccc[nH]c3=O)c(-c3ccc(-c4ccccc4)cc3)c2c1)N1CCN(Cc2ccccn2)CC1` [Compound 41, 3-(3-biphenyl-4-yl-5-{[4-(pyridin-2-ylmethyl)piperazin-1-yl]carbonyl}-1H-indol-2-yl)pyridin-2(1H)-one], the inhibition at 10 µM in the assay on KATO III lay within 80 to 100%; with NCI-H1299, 80 to 100%; in the assay on DLD-1 it was 80 to 100%; with MDA-MB-231 it was 50 to 79%. Besides, on IGF-1R, the inhibition at 30 µM was in the range of 50 to 79%.
With `CCOC(=O)N1CCN(C(=O)c2ccc3[nH]c(-c4ccc[nH]c4=O)c(-c4ccc(-c5ccccc5)cc4)c3c2)CC1` [Compound 44, ethyl 4-{[3-biphenyl-4-yl-2-(2-oxo-1,2-dihydropyridin-3-yl)-1H-indol-5-yl]carbonyl}piperazine-1-carboxylate], the inhibition at 10 µM was in the range of 80 to 100% with KATO III, 80 to 100% with NCI-H1299, 50 to 79% in the assay with DLD-1 and 80 to 100% in the assay on MDA-MB-231. Besides, at IGF-1R, the inhibition at 30 µM lay within 50 to 79%.
Take `CN(C)CCCN(C)C(=O)c1ccc2[nH]c(-c3ccc[nH]c3=O)c(-c3ccc(-c4ccccc4)cc3)c2c1` [Compound 46, 3-biphenyl-4-yl-N-[3-(dimethylamino)propyl]-N-methyl-2-(2-oxo-1,2-dihydropyridin-3-yl)-1H-indole-5-carboxamide]: the inhibition at 10 µM in the assay with KATO III, in the assay with NCI-H1299, in the assay with DLD-1 and with MDA-MB-231 was 80 to 100% each time. Moreover, the inhibition at 30 µM on IGF-1R lay in the range of 80 to 100%.
Consider `CN1CCC(N2CCN(C(=O)c3ccc4[nH]c(-c5ccc[nH]c5=O)c(-c5ccc(-c6ccccc6)cc5)c4c3)CC2)CC1` [Compound 50, 3-(3-biphenyl-4-yl-5-{[4-(1-methylpiperidin-4-yl)piperazin-1-yl]carbonyl}-1H-indol-2-yl)pyridin-2(1H)-one], for which the inhibition at 10 µM in the assay with KATO III, in the assay with NCI-H1299, in the assay on DLD-1 and with MDA-MB-231 was 80 to 100% throughout. For the same compound, at IGF-1R, the inhibition at 30 µM was in the range of 50 to 79%.
In the case of `CN1CCN(C(=O)c2ccc3[nH]c(-c4ccc[nH]c4=O)c(-c4ccc(-c5ccccc5)cc4)c3c2)CC1` [Compound 52, 3-{3-biphenyl-4-yl-5-[(4-methylpiperazin-1-yl)carbonyl]-1H-indol-2-yl}pyridin-2(1H)-one], the inhibition at 10 µM in the assay on KATO III, in the assay on NCI-H1299, in the assay with DLD-1 and in the assay with MDA-MB-231 was 80 to 100% throughout. Further, at IGF-1R, the inhibition at 30 µM was 80 to 100%.
As for `Cc1ccccc1-c1c(-c2ccc[nH]c2=O)[nH]c2ccc(C(=O)NCCCN3CCOCC3)cc12` [Compound 58, 3-(2-methylphenyl)-N-(3-morpholin-4-ylpropyl)-2-(2-oxo-1,2-dihydropyridin-3-yl)-1H-indole-5-carboxamide], the inhibition at 10 µM in the assay on KATO III, in the assay with NCI-H1299, in the assay with DLD-1 and in the assay with MDA-MB-231 was below 50% each time. At IGF-1R, the inhibition at 30 µM lay within 80 to 100%.
In the case of `O=C(NCCCN1CCOCC1)c1ccc2[nH]c(-c3ccc[nH]c3=O)c(-c3cc(F)ccc3F)c2c1` [Compound 60, 3-(2,5-difluorophenyl)-N-(3-morpholin-4-ylpropyl)-2-(2-oxo-1,2-dihydropyridin-3-yl)-1H-indole-5-carboxamide], the inhibition at 10 µM in the assay with KATO III fell in the range of 80 to 100%; in the assay on NCI-H1299 it was 80 to 100%; in the assay with DLD-1, 50 to 79%; with MDA-MB-231, 50 to 79%. In addition, the inhibition at 30 µM at IGF-1R was in the range of 80 to 100%.
Regarding `O=C(NCCCN1CCOCC1)c1ccc2[nH]c(-c3ccc[nH]c3=O)c(-c3ccc(F)c(F)c3)c2c1` [Compound 61, 3-(3,4-difluorophenyl)-N-(3-morpholin-4-ylpropyl)-2-(2-oxo-1,2-dihydropyridin-3-yl)-1H-indole-5-carboxamide], the inhibition at 10 µM with KATO III, with NCI-H1299, with DLD-1 and in the assay on MDA-MB-231 was 80 to 100% each time. Further, on IGF-1R, the inhibition at 30 µM is 80 to 100%.
For the compound `O=C(NCCCN1CCOCC1)c1ccc2[nH]c(-c3ccc[nH]c3=O)c(-c3cccc(Cl)c3)c2c1` [Compound 62, 3-(3-chlorophenyl)-N-(3-morpholin-4-ylpropyl)-2-(2-oxo-1,2-dihydropyridin-3-yl)-1H-indole-5-carboxamide], the inhibition at 10 µM in the assay with KATO III, with NCI-H1299, in the assay on DLD-1 and in the assay on MDA-MB-231 was 80 to 100% in each case. Also, the inhibition at 30 µM at IGF-1R was in the range of 80 to 100%.
